The values that follow come from ChEMBL document CHEMBL1201862, “PubChem BioAssay data set” (2004).

Molecules are shown by their SMILES. Active and inactive are the calls of the source.

The nature of assay [1]: HeLa cell viability loss – 24 h, dry powder, set 2, cytotoxicity control, dose response (AID 651774). It counts as functional, cell-based.
Assay [2] in a line: cervical cancer cell viability loss – HeLa, 24 h, plate reader, powder samples, set 3, cytotoxicity control, dose response (AID 651864). It counts as functional, cell-based.
A short description of assay [3]: Mycobacterium tuberculosis BioA enzyme inhibitor Measured in Biochemical System Using Plate Reader - 2163-02_Inhibitor_Dose_DryPowder_Activity.
Assay [4] can be described thus: MITF Orthogonal Assay: MALME3 CTG Assay Measured in Cell-Based System Using Plate Reader - 2084-04_Inhibitor_Dose_DryPowder_Activity_Set6. It counts as functional. To be noted: MALME-3.
The nature of assay [5]: growth inhibition of SK-MEL-5 melanoma cells – cell-based, CellTiter-Glo luminescence, dry powder, set 8, orthogonal assay for MITF inhibitor project, dose response (AID 651586). It counts as functional. A general note: Cellular ATP, detected with luciferase, serves as a proxy for viable cell number.
The nature of assay [6]: growth inhibition of MALME3 cells – cell-based, CellTiter-Glo luminescence, dry powder, set 5, orthogonal assay for MITF inhibitor project, dose response (AID 651584). In kind it is functional. To be noted: MALME-3.
A short description of assay [7]: cytotoxicity in MITF-independent A375 cells – cell-based, CellTiter-Glo luminescence, dry powder, set 9, counter-screen for MITF modulator project, dose response (AID 651591). It counts as functional. As to conditions: A-375.
Assay [8] is described as follows: inhibitors of TRPM1-promoter reporter in SK-MEL-5 – cell-based, luciferase, dry powder, set 8, MITF inhibitor project, dose response (AID 624430). It counts as functional.
Assay [9] is described as follows: melanocyte viability loss, MITF-dependent cells, cell-based, plate reader, dry powder, cytotoxicity control, dose response (AID 651920). In kind it is functional.
A short description of assay [10]: MITF: Counter assay: A375 proliferation Measured in Cell-Based System Using Plate Reader - 2084-03_Inhibitor_Dose_DryPowder_Activity_Set8. In kind it is functional. To be noted: A-375.
Assay [11] can be described thus: MITF Orthogonal Assay: SK-MEL-5 CTG Assay Measured in Cell-Based System Using Plate Reader - 2084-02_Inhibitor_Dose_DryPowder_Activity_Set7. In kind it is functional.
A short description of assay [12]: CTGF mRNA reduction in DLD1 cells – cell-based, DLD1 colon cancer, RT-qPCR, cherry-pick, dose response (AID 1053122). In kind it is functional. To be noted: Cancer cell lines. A general note: Quantitative PCR measures a nucleic acid by following its amplification.
Assay [13] is described as follows: Dd2 malaria parasite growth inhibition potency – SYBR Green, dry powder samples, dose response (AID 1159566).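 Further: potency for growth inhibition with lower SYBR green DNA signal.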 In kind it is functional, cell-based.
Assay [14] can be described thus: toxicity to human hepatoma HepG2 cells – cell-based, cherry-picked samples, cytotoxicity control, dose response (AID 1159577). In kind it is functional.
Assay [15] in a line: growth inhibition of PfATP4-mutant resistant parasites – NITD609-resistant line, SYBR Green, dry powder, dose response (AID 1159571).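 Further: parasites synchronized at ring stage by sorbitol before testing.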 In kind it is functional, cell-based.
Assay [16] can be described thus: toxicity to human HepG2 hepatoma cells – cell-based, plate reader, dry powder samples, cytotoxicity control, dose response (AID 1159569).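 Further: inhibitor potency with signal falling toward the positive control level.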 In kind it is functional.
Assay [17] is described as follows: growth inhibition of yeast DHODH-expressing 3D7 parasites – SYBR Green, dry powder samples, dose response (AID 1159570).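 Further: parasite growth measured after 72 hours of compound exposure.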 It counts as functional, cell-based.
The nature of assay [18]: P. falciparum Dd2 growth inhibitors, dose response, SYBR Green, cherry-picked samples (AID 1159567). It counts as functional, cell-based.
Assay [19] is described as follows: Late stage assay provider results from the probe development effort to identify selective inhibitors of heat shock protein 90 (HSP90): Absorbance-based cell proliferation assay in SKBR3 cells. In kind it is functional. As to conditions: SK-BR-3.
Assay [20] can be described thus: Late stage assay provider results from the probe development effort to identify selective inhibitors of heat shock protein 90 (HSP90): Absorbance-based cell proliferation assay in MCF7 cells. It counts as functional.
A further assay deals with NS3 (Hepatitis C virus, UniProt A3EZJ3). Briefly: NS3h DNA-binding inhibition IC50 – biochemical, fluorescence polarization, ChemBridge library, dose response (AID 743264). (Polarisation of emitted light reports the rotation of a fluorescent probe.)
Chain of NS3 (A3EZJ3 whole entry): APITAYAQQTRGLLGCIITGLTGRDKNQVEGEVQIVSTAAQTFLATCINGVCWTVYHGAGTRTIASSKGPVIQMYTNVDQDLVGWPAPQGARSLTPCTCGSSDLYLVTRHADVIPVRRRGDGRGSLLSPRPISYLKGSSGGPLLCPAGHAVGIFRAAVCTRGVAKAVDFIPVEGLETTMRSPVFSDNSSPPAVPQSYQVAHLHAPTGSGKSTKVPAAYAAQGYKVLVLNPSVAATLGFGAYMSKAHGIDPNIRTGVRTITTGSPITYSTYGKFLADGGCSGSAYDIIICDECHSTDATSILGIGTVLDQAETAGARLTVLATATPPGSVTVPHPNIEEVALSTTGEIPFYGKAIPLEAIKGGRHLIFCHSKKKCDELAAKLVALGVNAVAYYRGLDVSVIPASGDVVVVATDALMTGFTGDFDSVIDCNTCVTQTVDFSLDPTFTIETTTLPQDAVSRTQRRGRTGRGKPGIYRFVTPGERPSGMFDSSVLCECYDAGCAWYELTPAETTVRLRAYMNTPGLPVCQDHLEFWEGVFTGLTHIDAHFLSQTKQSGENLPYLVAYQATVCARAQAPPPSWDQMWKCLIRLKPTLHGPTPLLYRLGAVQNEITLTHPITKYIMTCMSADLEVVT
The nature of assay [21]: Dd2 parasite growth inhibition in erythrocytes – SYBR Green, dry powder samples, set 9, dose response (AID 1159568). In kind it is functional, cell-based.
The nature of assay [22]: HEK293 cell viability loss – cherry-picked samples, cytotoxicity control, dose response (AID 1053185). In kind it is functional, cell-based.
A short description of assay [23]: viability loss in HEK293 kidney cells – cell-based, cherry-picks, set 5, cytotoxicity control, dose response (AID 1053117). In kind it is functional.
Assay [24] is described as follows: viability loss in HepG2 hepatoma cells – cell-based, cherry-picks, set 5, cytotoxicity control, dose response (AID 1053118). It counts as functional.
Assay [25] can be described thus: Late stage assay provider results from the probe development effort to identify inhibitors of the Plasmodium falciparum M18 Aspartyl Aminopeptidase (M18AAP): radiolabel-based cell-based dose response assay to identify compounds that inhibit P. falciparum growth in RBCs, Set 2.. It counts as functional.

As usually defined, the AC50 is the midpoint of the concentration-response curve, whichever way the signal moves. Consider `CCC(CC)NC(=O)Cc1ccc(-c2ccccc2)cc1`, for which the results for the AC50 in assay [1] and in [2] were > 70 µM (inactive) and > 160 µM (inactive), respectively.

With `O=C(Nc1cccnc1)N1CCN(c2ccccc2)CC1`, the half-maximal activity concentration (AC50) in [3] was 13 µM (active).

`Cc1ccc(NC2=CC(=O)c3ccccc3C2=O)cc1`: the AC50 is 13.5 µM (active) in assay [4]; 36.1 µM (active) in assay [5]; 13.5 µM (active) in assay [6]; > 70 µM (inactive) in assay [7]; 6.58 µM (active) in [8]; > 70 µM (inactive) in assay [9]. Moreover, the values for the AC50 in assay [10] and in [11] were > 70 µM (inactive) and 1.24 µM (active), respectively.

Turning to `C[C@@H]1CN([C@H](C)CO)C(=O)c2c(c3ccccc3n2C)-c2ccccc2CO[C@@H]1CN(C)Cc1cccc(C(F)(F)F)c1`, the AC50 in [12] was 14.3 µM (active); in [13], 1.28 µM (active); in assay [14], 27.2 µM (active); in assay [15] it was 2.09 µM (active); in assay [16] it was 19.6 µM (active); in [17], 3.38 µM (active). For the same compound, the AC50 in assay [18] was 1.87 µM (active).

The term IC50 denotes the point on the concentration scale where inhibition reaches its midpoint. For the compound `O=c1oc2ccc(OCCc3ccc(F)cc3)cc2cc1Br`, the IC50 in assay [19] is 91.7 µM (inactive); in assay [20], > 100 µM (inactive).

Regarding `O=C1NC(=O)N(c2ccccc2F)C(=O)/C1=C/c1ccc(-c2cc(C(=O)O)ccc2Cl)o1`, the IC50 at NS3 is 35 µM (inactive).

`C[C@H](CO)N1C[C@H](C)[C@@H](CN(C)Cc2ccccc2)Oc2c(NC(=O)Cc3cn(C)c4ccccc34)cccc2C1=O`: the AC50 in [21] is 1.97 µM (active); in assay [22], 40.1 µM (active).

With `COc1cccc(-c2ccc3c(c2)[C@H]2[C@H](CCN2S(=O)(=O)c2cccc(OC)c2)[C@@H](CO)N3)c1`, the AC50 in [23] is 29.7 µM (active); in assay [24], > 52 µM (inactive).

Take `COc1ccc(CCNc2ccnc3cc(Cl)ccc23)cc1OC`: in [25], the IC50 was 0.66 µM (active).
